In assay [1] the test system is IGROV1 ovarian carcinoma xenografts. Nature of the assay: Human ovarian carcinoma xenograft model (IGROV1) in athymic mice. It counts as in vivo, athymic mice (CD-1 nu/nu females). The procedure: An in vivo study was performed to assess the potency and therapeutic efficacy of the antibody-drug conjugate, CR014-vcMMAE, against an established human IGROV-1 ovarian xenograft in athymic mice.
Test Animals: Five- to 6-week old athymic mice (CD-1 nu/nu females), used for human tumor xenografts, were obtained from Charles Rivers Laboratories (Wilmington, Del.). Animals were housed in specific pathogen-free conditions, according to the guidelines of the Association for Assessment and Accreditation of Laboratory Animal Care International (AAALAC International). Test animals were provided pelleted food and water ad libitum and kept in a room with conditioned ventilation (HVAC), temperature (22°±2° C.), relative humidity (55%±15%), and photoperiod (12 hr). All studies were carried out with approved institutional animal care and use protocols. Contract Research Organizations. Experiments in vivo were conducted at Southern Research Institute (Birmingham, Ala.).
Human Ovarian Carcinoma Xenograft Model. The tumor inhibitory activity of the CR014-MMAE immunoconjugate was measured in an anti-tumor xenograft model using athymic mice, according to published methods (Geran R I, Greenberg N H, Macdonald M M, Schumacher A M and Abbott B J (1972) Protocols for screening chemical agents and natural products against animal tumors and other biological systems. Cancer Chemother Rep 3:1-104).
Briefly, test animals were implanted subcutaneously by trocar with small fragments of the IGROV1 carcinoma (30-60 mg) excised from athymic mouse tumor donors. […]
The IGROV1 ovarian carcinoma was derived from a person in 1985, and was obtained from the American Type Culture Collection. The effects of treatment were monitored by repetitive tumor measurements across 2 diameters with Vernier calipers; tumor size (in mg) was calculated using a standard formula, (W^2×L)/2, assuming a specific gravity of 1.0. Tumor size and body weights were assessed twice weekly. […]

The next assay has as its system ACHN cells. The assay can be described thus: Antibody mediated toxin killing clonogenic assay (saporin conjugated secondary antibody), ACHN. The following applies: EGFR mAb at 100 ng/mL with saporin secondary. It counts as cell-based, human. The procedure: (§1) A clonogenic assay as described in the art was used to determine whether primary antibodies can induce cancer cell death when used in combination with a saporin toxin conjugated secondary antibody reagent. Kohls and Lappi, Biotechniques, 28(1):162-5 (2000).
(§2) ACHN and BT549 cells were plated onto flat bottom tissue culture plates at a density of 3000 cells per well. On day 2 or when cells reached ˜25% confluency, 100 ng/well secondary mAb-toxin (goat anti-human IgG-saporin; Advanced Targeting Systems; HUM-ZAP; cat. no. IT-22) was added. A positive control anti-EGFR antibody, mAb 2.7.2, mAb 2.59.2, or an isotype control mAb was then added to each well at the desired concentration (typically 1 to 500 ng/mL). On day 5, the cells were trypsinized, transferred to a 150 mm tissue culture dish, and incubated at 37° C. Plates were examined daily. On days 10-12, all plates were Giemsa stained and colonies on the plates were counted. Plating efficiency was determined by comparing the number of cells prior to transfer to 150 mm plates to the number of colonies that eventually formed.
(§3) The percent viability in antigen positive ACHN and antigen negative BT549 cell lines are presented in FIG. 4 and FIG. 5 respectively.

In another assay the test system is BT549 cells. Nature of the assay: Antibody mediated toxin killing clonogenic assay (saporin conjugated secondary antibody), BT549. It counts as cell-based, human. The following applies: EGFR mAb at 100 ng/mL with saporin secondary. The protocol:
as §1, §2, §3

Counter-ions that a name gives are not always drawn.

The source of these data is patent US20170267750A1, “Method of Treating Ovarian and Renal Cancer Using Antibodies Against T Cell Immunoglobulin Domain and Mucin Domain 1 (TIM-1) Antigen” (Celldex Therapeutics, Inc., priority 2005, published 2017).

Regarding `CC[C@]1(O)C[C@@H]2CN(CCc3c([nH]c4ccccc34)[C@@](C(=O)OC)(c3cc4c(cc3OC)N(C)[C@H]3[C@@](O)(C(=O)OC)[C@H](OC(C)=O)[C@]5(CC)C=CCN6CC[C@]43[C@@H]65)C2)C1` [Vinblastine, vinblastine sulfate], the anti-tumor effect entry in assay [1] (vinblastine sulfate i.v., 1.7 mg/kg, q4d×4 (MTD)) was “very slight, but not significant, anti-tumor effect”.
Regarding `CC(=O)O[C@H]1C(=O)[C@@]2(C)[C@H]([C@H](OC(=O)c3ccccc3)[C@]3(O)C[C@H](OC(=O)[C@H](O)[C@@H](NC(=O)c4ccccc4)c4ccccc4)C(C)=C1C3(C)C)[C@]1(OC(C)=O)CO[C@@H]1C[C@@H]2O` [Paclitaxel, paclitaxel], in assay [1] (101 days after the commencement of treatment), the “re-growth of tumors during the observation period” value is reported as “not observed”. Besides, the anti-tumor effect result in assay [1] (paclitaxel i.v., 24 mg/kg, q2d×4 (MTD)) was “significant tumor growth inhibition”.
For the compound `O=c1[nH]cc(F)c(=O)[nH]1` [5-FU, 5 Fluorouracil, reference compound], the “killing in clonogenic assay (controls)” value in the assay on ACHN cells and in the assay on BT549 cells was “almost complete killing” each time.
